From PubChem BioAssay AID2060898 (Molecular Pharmacology Branch, DTP, NCI, 2025)
“And” between values parts separate entries of the source, which are not always exact repeats. Identical values can stand only once.

System: 616215-338-R-J1-PDC complex spheroid viability
Assay: Anticancer human tumor 616215-338-R-J1-PDC patient-derived colon adenocarcinoma cell line growth inhibition [RAS]
Conditions: for IC50: curve of first compound; for viability, T/C: stronger effect = lower value
Summary of the method: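 Multi-cell-type spheroids: tumor cells plus HUVEC endothelial cells and mesenchymal stem cells. RAS-pathway inhibitors were combined with targeted agents, each dosed in half-log steps down from clinical Cmax, or from 10 microM when Cmax was unknown.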
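Further: spheroids exposed to agents for seven days before viability readout.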
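Wherever viability, T/C is given: 100% = DMSO vehicle control viability.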

`CC(Nc1ccc2c(c1)OCCn1cc(N3C(=O)OCC3C(F)F)nc1-2)C(N)=O` (stereo not given) + C#Cc1c(F)ccc2cc(O)cc(-c3ncc4c(N5CC6CCC(C5)N6)nc(OCC56CCCN5CC(F)C6)nc4c3F)c12 was tested, and the IC50 (second compound 0.0316 µM) was > 10 µM, the IC50 (second compound 0.1 µM) was > 10 µM and the IC50 (second compound 0.316 µM) was > 10 µM. For the same compound, the IC50 (second compound 1 µM) was > 10 µM, the IC50 (second compound 3.16 µM) was > 10 µM and the IC50 (second compound 10 µM) was < 0.0316 µM. For the same compound, the viability, T/C (second compound 0.0316 µM, first compound 0.0316 µM) was 98.9%, the viability, T/C (second compound 0.0316 µM, first compound 0.1 µM) was 132% and the viability, T/C (second compound 0.0316 µM, first compound 0.316 µM) was 104%. For the same compound, the viability, T/C (second compound 0.0316 µM, first compound 1 µM) was 104%, the viability, T/C (second compound 0.0316 µM, first compound 3.16 µM) was 101% and the viability, T/C (second compound 0.0316 µM, first compound 10 µM) was 73%. The viability, T/C (second compound 0.1 µM, first compound 0.0316 µM) was 104%, the viability, T/C (second compound 0.1 µM, first compound 0.1 µM) was 115% and the viability, T/C (second compound 0.1 µM, first compound 0.316 µM) was 113%. For the same compound, the viability, T/C (second compound 0.1 µM, first compound 1 µM) was 106%, the viability, T/C (second compound 0.1 µM, first compound 3.16 µM) was 98.5% and the viability, T/C (second compound 0.1 µM, first compound 10 µM) was 78.2%. For the same compound, the viability, T/C (second compound 0.316 µM, first compound 0.0316 µM) was 102%, the viability, T/C (second compound 0.316 µM, first compound 0.1 µM) was 122% and the viability, T/C (second compound 0.316 µM, first compound 0.316 µM) was 111%. The viability, T/C (second compound 0.316 µM, first compound 1 µM) was 108%, the viability, T/C (second compound 0.316 µM, first compound 3.16 µM) was 101% and the viability, T/C (second compound 0.316 µM, first compound 10 µM) was 76.8%. The viability, T/C (second compound 1 µM, first compound 0.0316 µM) was 116%, the viability, T/C (second compound 1 µM, first compound 0.1 µM) was 115% and the viability, T/C (second compound 1 µM, first compound 0.316 µM) was 106%. It also gave a viability, T/C (second compound 1 µM, first compound 1 µM) of 100%, a viability, T/C (second compound 1 µM, first compound 3.16 µM) of 98.1% and a viability, T/C (second compound 1 µM, first compound 10 µM) of 73.8%. The viability, T/C (second compound 3.16 µM, first compound 0.0316 µM) was 73.4%, the viability, T/C (second compound 3.16 µM, first compound 0.1 µM) was 84.4% and the viability, T/C (second compound 3.16 µM, first compound 0.316 µM) was 81.3%. For the same compound, the viability, T/C (second compound 3.16 µM, first compound 1 µM) was 85.8%, the viability, T/C (second compound 3.16 µM, first compound 3.16 µM) was 91.5% and the viability, T/C (second compound 3.16 µM, first compound 10 µM) was 65.6%. The viability, T/C (second compound 10 µM, first compound 0.0316 µM) was 50.7%, the viability, T/C (second compound 10 µM, first compound 0.1 µM) was 38.7% and the viability, T/C (second compound 10 µM, first compound 0.316 µM) was 34%. It also gave a viability, T/C (second compound 10 µM, first compound 1 µM) of 43.4%, a viability, T/C (second compound 10 µM, first compound 3.16 µM) of 31.6% and a viability, T/C (second compound 10 µM, first compound 10 µM) of 34.3%.

For `CC(C)NCC(C(=O)N1CCN(c2ncnc3c2C(C)CC3O)CC1)c1ccc(Cl)cc1` (stereo not given), the viability, T/C (compound 0.0316 µM) was 105% [middle of 4 runs], the viability, T/C (compound 0.1 µM) was 100% [middle of 4 runs] and the viability, T/C (compound 0.316 µM) was 100% [middle of 4 runs]. For the same compound, the viability, T/C (compound 1 µM) was 101% [middle of 4 runs], the viability, T/C (compound 3.16 µM) was 95.3% (2×) and 87.8% and 95.7% and the viability, T/C (compound 10 µM) was 49.3% [middle of 4 runs].

Compound `CC(C)NCC(C(=O)N1CCN(c2ncnc3c2C(C)CC3O)CC1)c1ccc(Cl)cc1` (stereo not given) + CCn1c(-c2cc(N3CCN(C)CC3)cnc2C(C)OC)c2c3cc(ccc31)-c1csc(n1)CC(NC(=O)C1CC1C)C(=O)N1CCCC(N1)C(=O)OCC(C)(C)C2 has an IC50 (second compound 0.000949 µM) of 7.56 µM, an IC50 (second compound 0.003 µM) of 5.48 µM and an IC50 (second compound 0.00949 µM) of 2.38 µM. The IC50 (second compound 0.03 µM) was < 0.0316 µM, the IC50 (second compound 0.0949 µM) was < 0.0316 µM and the IC50 (second compound 0.3 µM) was < 0.0316 µM. It also gave a viability, T/C (second compound 0.000949 µM, first compound 0.0316 µM) of 109%, a viability, T/C (second compound 0.000949 µM, first compound 0.1 µM) of 106% and a viability, T/C (second compound 0.000949 µM, first compound 0.316 µM) of 102%. For the same compound, the viability, T/C (second compound 0.000949 µM, first compound 1 µM) was 106%, the viability, T/C (second compound 0.000949 µM, first compound 3.16 µM) was 78.2% and the viability, T/C (second compound 0.000949 µM, first compound 10 µM) was 41%. For the same compound, the viability, T/C (second compound 0.003 µM, first compound 0.0316 µM) was 113%, the viability, T/C (second compound 0.003 µM, first compound 0.1 µM) was 107% and the viability, T/C (second compound 0.003 µM, first compound 0.316 µM) was 103%. For the same compound, the viability, T/C (second compound 0.003 µM, first compound 1 µM) was 105%, the viability, T/C (second compound 0.003 µM, first compound 3.16 µM) was 67.5% and the viability, T/C (second compound 0.003 µM, first compound 10 µM) was 30.9%. The viability, T/C (second compound 0.00949 µM, first compound 0.0316 µM) was 96.1%, the viability, T/C (second compound 0.00949 µM, first compound 0.1 µM) was 85.1% and the viability, T/C (second compound 0.00949 µM, first compound 0.316 µM) was 81.7%. For the same compound, the viability, T/C (second compound 0.00949 µM, first compound 1 µM) was 82.1%, the viability, T/C (second compound 0.00949 µM, first compound 3.16 µM) was 39.6% and the viability, T/C (second compound 0.00949 µM, first compound 10 µM) was 21.6%. For the same compound, the viability, T/C (second compound 0.03 µM, first compound 0.0316 µM) was 50.8%, the viability, T/C (second compound 0.03 µM, first compound 0.1 µM) was 40% and the viability, T/C (second compound 0.03 µM, first compound 0.316 µM) was 36.5%. It also gave a viability, T/C (second compound 0.03 µM, first compound 1 µM) of 47.7%, a viability, T/C (second compound 0.03 µM, first compound 3.16 µM) of 26.1% and a viability, T/C (second compound 0.03 µM, first compound 10 µM) of 14.5%. The viability, T/C (second compound 0.0949 µM, first compound 0.0316 µM) was 43.7%, the viability, T/C (second compound 0.0949 µM, first compound 0.1 µM) was 34.9% and the viability, T/C (second compound 0.0949 µM, first compound 0.316 µM) was 33.3%. The viability, T/C (second compound 0.0949 µM, first compound 1 µM) was 25.9%, the viability, T/C (second compound 0.0949 µM, first compound 3.16 µM) was 22% and the viability, T/C (second compound 0.0949 µM, first compound 10 µM) was 11.1%. It also gave a viability, T/C (second compound 0.3 µM, first compound 0.0316 µM) of 52%, a viability, T/C (second compound 0.3 µM, first compound 0.1 µM) of 29.9% and a viability, T/C (second compound 0.3 µM, first compound 0.316 µM) of 32.8%. The viability, T/C (second compound 0.3 µM, first compound 1 µM) was 26.6%, the viability, T/C (second compound 0.3 µM, first compound 3.16 µM) was 19.4% and the viability, T/C (second compound 0.3 µM, first compound 10 µM) was 11.1%.
